In ChEMBL document CHEMBL4507311, “Data for DCP probe A-1155463” (2021):

Legend:
[1] = biological target: Mitogen-activated protein kinase 6 (Homo sapiens) (UniProt Q16659); conditions: Compound concentration 1000.0 nM
[2] = biological target: Sigma non-opioid intracellular receptor 1 (Homo sapiens, UniProt Q99720); experiment: GPCRScan assay: inhibition of Sigma 1; parameters: radioligand conc. used [nm] 4.0 – 5.0, parental cells HEKT
[3] = tested on: Tyrosine-protein kinase ABL1 (Homo sapiens), P00519 [Q252H]; conditions: Compound concentration 1000.0 nM
[4] = biological target: Testis-specific serine/threonine-protein kinase 3 (Homo sapiens) (UniProt Q96PN8); conditions: Compound concentration 1000.0 nM
[5] = biological target: Ephrin type-A receptor 4 (Homo sapiens) (UniProt P54764); conditions: Compound concentration 1000.0 nM
[6] = biological target: Atypical kinase COQ8B, mitochondrial (Homo sapiens) (UniProt Q96D53); conditions: Compound concentration 1000.0 nM
[7] = biological target: Mitogen-activated protein kinase 9 (Homo sapiens) (UniProt P45984); conditions: Compound concentration 1000.0 nM
[8] = tested on: Proto-oncogene tyrosine-protein kinase receptor Ret (Homo sapiens), P07949 [V804L]; conditions: Compound concentration 1000.0 nM
[9] = biological target: Serine/threonine-protein kinase TAO1 (Homo sapiens) (UniProt Q7L7X3); conditions: Compound concentration 1000.0 nM
[10] = biological target: Epithelial discoidin domain-containing receptor 1 (Homo sapiens) (UniProt Q08345); conditions: Compound concentration 1000.0 nM
[11] = biological target: Serine/threonine-protein kinase Nek2 (Homo sapiens) (UniProt P51955); conditions: Compound concentration 1000.0 nM
[12] = biological target: Hormonally up-regulated neu tumor-associated kinase (Homo sapiens) (UniProt P57058); conditions: Compound concentration 1000.0 nM
[13] = biological target: Tyrosine-protein kinase TXK (Homo sapiens) (UniProt P42681); conditions: Compound concentration 1000.0 nM
[14] = biological target: Dual specificity mitogen-activated protein kinase kinase 7 (Homo sapiens) (UniProt O14733); conditions: Compound concentration 1000.0 nM
[15] = biological target: Leukocyte tyrosine kinase receptor (Homo sapiens) (UniProt P29376); conditions: Compound concentration 1000.0 nM
[16] = biological target: Tyrosine-protein kinase ABL1 (Homo sapiens) (UniProt P00519); conditions: Compound concentration 1000.0 nM
[17] = biological target: Protein-tyrosine kinase 2-beta (Homo sapiens) (UniProt Q14289); conditions: Compound concentration 1000.0 nM
[18] = biological target: Proto-oncogene tyrosine-protein kinase receptor Ret (Homo sapiens) (UniProt P07949); conditions: Compound concentration 1000.0 nM
[19] = biological target: Peripheral plasma membrane protein CASK (Homo sapiens) (UniProt O14936); conditions: Compound concentration 1000.0 nM
[20] = biological target: Casein kinase II subunit alpha (Homo sapiens) (UniProt P68400); conditions: Compound concentration 1000.0 nM
[21] = biological target: cAMP-dependent protein kinase catalytic subunit beta (Homo sapiens) (UniProt P22694); conditions: Compound concentration 1000.0 nM
[22] = biological target: 5-hydroxytryptamine receptor 6 (Homo sapiens) (UniProt P50406); conditions: Compound concentration 10.0 uM
[23] = biological target: Myosin light chain kinase (Homo sapiens) (UniProt Q32MK0); conditions: Compound concentration 1000.0 nM
[24] = biological target: Serine/threonine-protein kinase DCLK2 (Homo sapiens) (UniProt Q8N568); conditions: Compound concentration 1000.0 nM
[25] = biological target: cGMP-dependent protein kinase 1 (Homo sapiens) (UniProt Q13976); conditions: Compound concentration 1000.0 nM
[26] = biological target: Ribosomal protein S6 kinase alpha-1 (Homo sapiens) (UniProt Q15418); conditions: Compound concentration 1000.0 nM
[27] = biological target: Epidermal growth factor receptor (Homo sapiens) (UniProt P00533); conditions: Compound concentration 1000.0 nM
[28] = biological target: Ephrin type-B receptor 3 (Homo sapiens) (UniProt P54753); conditions: Compound concentration 1000.0 nM
[29] = biological target: Macrophage-stimulating protein receptor (Homo sapiens) (UniProt Q04912); conditions: Compound concentration 1000.0 nM
[30] = biological target: Serine/threonine-protein kinase SBK1 (Homo sapiens) (UniProt Q52WX2); conditions: Compound concentration 1000.0 nM
[31] = biological target: Mitogen-activated protein kinase kinase kinase kinase 1 (Homo sapiens) (UniProt Q92918); conditions: Compound concentration 1000.0 nM
[32] = biological target: Casein kinase I isoform alpha-like (Homo sapiens) (UniProt Q8N752); conditions: Compound concentration 1000.0 nM
[33] = tested on: Phosphatidylinositol 4,5-bisphosphate 3-kinase catalytic subunit alpha isoform (Homo sapiens), P42336 [I800L]; conditions: Compound concentration 1000.0 nM
[34] = biological target: Protein kinase C epsilon type (Homo sapiens) (UniProt Q02156); conditions: Compound concentration 1000.0 nM
[35] = biological target: Activin receptor type-1 (Homo sapiens) (UniProt Q04771); conditions: Compound concentration 1000.0 nM
[36] = biological target: Serine/threonine-protein kinase LATS2 (Homo sapiens) (UniProt Q9NRM7); conditions: Compound concentration 1000.0 nM
[37] = biological target: Serine/threonine-protein kinase 24 (Homo sapiens) (UniProt Q9Y6E0); conditions: Compound concentration 1000.0 nM
[38] = biological target: Serine/threonine-protein kinase ULK1 (Homo sapiens) (UniProt O75385); conditions: Compound concentration 1000.0 nM
[39] = biological target: Homeodomain-interacting protein kinase 2 (Homo sapiens) (UniProt Q9H2X6); conditions: Compound concentration 1000.0 nM
[40] = biological target: Serine/threonine-protein kinase MARK2 (Homo sapiens) (UniProt Q7KZI7); conditions: Compound concentration 1000.0 nM
[41] = tested on: Tyrosine-protein kinase ABL1 (Homo sapiens), P00519 [M351T]; conditions: Compound concentration 1000.0 nM
[42] = biological target: Serine/threonine-protein kinase MRCK gamma (Homo sapiens) (UniProt Q6DT37); conditions: Compound concentration 1000.0 nM
[43] = biological target: Serine/threonine-protein kinase ULK3 (Homo sapiens) (UniProt Q6PHR2); conditions: Compound concentration 1000.0 nM
[44] = biological target: Cyclin-dependent kinase 11B (Homo sapiens) (UniProt P21127); conditions: Compound concentration 1000.0 nM
[45] = biological target: Macrophage colony-stimulating factor 1 receptor (Homo sapiens) (UniProt P07333); conditions: Compound concentration 1000.0 nM
[46] = biological target: Sigma intracellular receptor 2 (Homo sapiens, UniProt Q5BJF2); experiment: GPCRScan assay: inhibition of Sigma 2; parameters: radioligand conc. used [nm] 5.0, parental cells HEKT
Sigma intracellular receptor 2, sequence (Q5BJF2 whole entry): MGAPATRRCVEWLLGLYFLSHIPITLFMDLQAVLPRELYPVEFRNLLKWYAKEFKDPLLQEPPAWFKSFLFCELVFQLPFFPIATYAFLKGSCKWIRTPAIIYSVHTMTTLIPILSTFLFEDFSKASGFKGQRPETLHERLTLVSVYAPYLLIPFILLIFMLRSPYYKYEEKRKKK

Serine/threonine-protein kinase MARK2 (Homo sapiens), sequence (Q7KZI7 whole entry): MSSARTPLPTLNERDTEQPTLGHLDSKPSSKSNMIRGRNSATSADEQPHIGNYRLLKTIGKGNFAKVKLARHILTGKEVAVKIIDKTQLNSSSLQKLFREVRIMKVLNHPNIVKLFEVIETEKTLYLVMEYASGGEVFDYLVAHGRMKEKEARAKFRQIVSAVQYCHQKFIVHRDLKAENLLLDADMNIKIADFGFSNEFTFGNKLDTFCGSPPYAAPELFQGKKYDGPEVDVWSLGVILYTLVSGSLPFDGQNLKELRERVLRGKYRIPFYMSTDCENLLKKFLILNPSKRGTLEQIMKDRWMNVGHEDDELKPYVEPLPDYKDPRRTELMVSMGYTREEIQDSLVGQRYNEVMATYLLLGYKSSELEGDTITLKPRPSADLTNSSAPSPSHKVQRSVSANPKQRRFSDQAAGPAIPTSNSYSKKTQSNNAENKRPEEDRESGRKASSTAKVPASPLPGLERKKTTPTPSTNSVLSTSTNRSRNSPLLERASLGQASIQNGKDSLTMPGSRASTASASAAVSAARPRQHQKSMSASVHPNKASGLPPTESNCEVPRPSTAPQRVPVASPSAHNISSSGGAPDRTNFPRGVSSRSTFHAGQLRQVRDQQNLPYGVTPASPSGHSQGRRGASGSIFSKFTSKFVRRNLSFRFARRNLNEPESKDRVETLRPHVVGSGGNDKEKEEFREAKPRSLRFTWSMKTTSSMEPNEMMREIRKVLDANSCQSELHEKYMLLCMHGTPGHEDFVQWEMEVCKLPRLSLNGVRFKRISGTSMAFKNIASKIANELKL
Atypical kinase COQ8B, mitochondrial (Homo sapiens), sequence (Q96D53 whole entry): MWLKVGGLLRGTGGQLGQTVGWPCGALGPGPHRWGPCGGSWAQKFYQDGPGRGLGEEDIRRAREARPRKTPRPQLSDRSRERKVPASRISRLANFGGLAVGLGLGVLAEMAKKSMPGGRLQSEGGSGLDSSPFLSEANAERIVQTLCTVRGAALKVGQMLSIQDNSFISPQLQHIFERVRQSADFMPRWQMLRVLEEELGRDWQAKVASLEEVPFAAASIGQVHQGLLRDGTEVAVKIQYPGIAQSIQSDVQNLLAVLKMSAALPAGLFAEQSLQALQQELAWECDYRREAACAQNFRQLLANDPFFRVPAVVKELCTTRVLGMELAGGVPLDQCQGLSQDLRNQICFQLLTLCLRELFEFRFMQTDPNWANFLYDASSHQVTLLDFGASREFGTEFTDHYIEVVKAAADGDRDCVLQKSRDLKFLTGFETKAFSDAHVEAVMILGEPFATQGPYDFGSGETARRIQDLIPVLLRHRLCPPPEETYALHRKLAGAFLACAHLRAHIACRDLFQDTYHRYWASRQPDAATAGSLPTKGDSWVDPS
Myosin light chain kinase (Homo sapiens), sequence (Q32MK0 whole entry): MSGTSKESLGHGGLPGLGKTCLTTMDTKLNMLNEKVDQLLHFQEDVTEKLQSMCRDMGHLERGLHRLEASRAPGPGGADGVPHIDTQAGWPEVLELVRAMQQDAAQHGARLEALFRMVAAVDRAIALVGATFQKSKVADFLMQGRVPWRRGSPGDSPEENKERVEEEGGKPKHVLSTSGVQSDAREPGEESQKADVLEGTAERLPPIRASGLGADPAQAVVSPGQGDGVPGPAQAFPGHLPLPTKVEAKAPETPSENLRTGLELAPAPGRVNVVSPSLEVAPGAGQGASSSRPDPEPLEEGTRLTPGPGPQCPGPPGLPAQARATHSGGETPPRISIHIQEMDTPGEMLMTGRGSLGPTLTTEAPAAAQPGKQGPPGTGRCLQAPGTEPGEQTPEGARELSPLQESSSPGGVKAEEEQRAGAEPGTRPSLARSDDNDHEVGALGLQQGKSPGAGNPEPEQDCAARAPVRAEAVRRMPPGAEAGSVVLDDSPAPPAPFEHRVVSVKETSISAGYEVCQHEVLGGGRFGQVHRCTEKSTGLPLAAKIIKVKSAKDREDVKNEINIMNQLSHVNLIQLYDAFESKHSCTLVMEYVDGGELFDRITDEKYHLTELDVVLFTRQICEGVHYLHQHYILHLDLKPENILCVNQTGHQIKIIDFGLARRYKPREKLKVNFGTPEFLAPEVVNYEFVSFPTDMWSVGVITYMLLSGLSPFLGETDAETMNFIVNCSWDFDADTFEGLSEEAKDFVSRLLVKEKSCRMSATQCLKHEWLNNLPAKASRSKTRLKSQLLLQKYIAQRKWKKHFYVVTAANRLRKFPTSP
Serine/threonine-protein kinase LATS2 (Homo sapiens), sequence (Q9NRM7 whole entry): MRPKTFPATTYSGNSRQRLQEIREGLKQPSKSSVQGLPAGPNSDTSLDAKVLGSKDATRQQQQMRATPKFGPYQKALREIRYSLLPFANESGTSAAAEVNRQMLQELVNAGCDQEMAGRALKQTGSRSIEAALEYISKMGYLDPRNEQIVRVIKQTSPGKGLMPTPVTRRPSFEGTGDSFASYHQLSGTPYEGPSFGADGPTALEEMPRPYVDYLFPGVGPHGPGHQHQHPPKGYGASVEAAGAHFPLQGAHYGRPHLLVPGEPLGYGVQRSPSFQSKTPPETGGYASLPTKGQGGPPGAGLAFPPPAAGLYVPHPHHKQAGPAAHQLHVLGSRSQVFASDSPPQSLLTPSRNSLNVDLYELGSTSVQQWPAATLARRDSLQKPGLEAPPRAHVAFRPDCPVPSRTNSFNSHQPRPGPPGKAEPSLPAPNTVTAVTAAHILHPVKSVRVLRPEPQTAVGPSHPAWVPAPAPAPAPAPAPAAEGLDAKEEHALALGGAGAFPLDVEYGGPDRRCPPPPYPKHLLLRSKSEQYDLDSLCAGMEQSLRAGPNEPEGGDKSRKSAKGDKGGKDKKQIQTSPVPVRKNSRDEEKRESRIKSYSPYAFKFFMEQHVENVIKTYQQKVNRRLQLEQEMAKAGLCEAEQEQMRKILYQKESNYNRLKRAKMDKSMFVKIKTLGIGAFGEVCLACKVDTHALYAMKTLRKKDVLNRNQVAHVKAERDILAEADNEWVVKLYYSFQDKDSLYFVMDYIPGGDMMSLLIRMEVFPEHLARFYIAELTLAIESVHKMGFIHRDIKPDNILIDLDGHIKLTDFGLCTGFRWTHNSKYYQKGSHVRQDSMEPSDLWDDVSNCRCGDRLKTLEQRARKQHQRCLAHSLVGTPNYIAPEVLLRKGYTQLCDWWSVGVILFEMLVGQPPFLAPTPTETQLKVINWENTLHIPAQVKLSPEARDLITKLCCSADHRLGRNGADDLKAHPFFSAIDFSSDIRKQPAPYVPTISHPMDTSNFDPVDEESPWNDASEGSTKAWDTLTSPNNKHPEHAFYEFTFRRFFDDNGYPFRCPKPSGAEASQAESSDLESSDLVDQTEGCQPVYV
Epidermal growth factor receptor (Homo sapiens), sequence (P00533 whole entry): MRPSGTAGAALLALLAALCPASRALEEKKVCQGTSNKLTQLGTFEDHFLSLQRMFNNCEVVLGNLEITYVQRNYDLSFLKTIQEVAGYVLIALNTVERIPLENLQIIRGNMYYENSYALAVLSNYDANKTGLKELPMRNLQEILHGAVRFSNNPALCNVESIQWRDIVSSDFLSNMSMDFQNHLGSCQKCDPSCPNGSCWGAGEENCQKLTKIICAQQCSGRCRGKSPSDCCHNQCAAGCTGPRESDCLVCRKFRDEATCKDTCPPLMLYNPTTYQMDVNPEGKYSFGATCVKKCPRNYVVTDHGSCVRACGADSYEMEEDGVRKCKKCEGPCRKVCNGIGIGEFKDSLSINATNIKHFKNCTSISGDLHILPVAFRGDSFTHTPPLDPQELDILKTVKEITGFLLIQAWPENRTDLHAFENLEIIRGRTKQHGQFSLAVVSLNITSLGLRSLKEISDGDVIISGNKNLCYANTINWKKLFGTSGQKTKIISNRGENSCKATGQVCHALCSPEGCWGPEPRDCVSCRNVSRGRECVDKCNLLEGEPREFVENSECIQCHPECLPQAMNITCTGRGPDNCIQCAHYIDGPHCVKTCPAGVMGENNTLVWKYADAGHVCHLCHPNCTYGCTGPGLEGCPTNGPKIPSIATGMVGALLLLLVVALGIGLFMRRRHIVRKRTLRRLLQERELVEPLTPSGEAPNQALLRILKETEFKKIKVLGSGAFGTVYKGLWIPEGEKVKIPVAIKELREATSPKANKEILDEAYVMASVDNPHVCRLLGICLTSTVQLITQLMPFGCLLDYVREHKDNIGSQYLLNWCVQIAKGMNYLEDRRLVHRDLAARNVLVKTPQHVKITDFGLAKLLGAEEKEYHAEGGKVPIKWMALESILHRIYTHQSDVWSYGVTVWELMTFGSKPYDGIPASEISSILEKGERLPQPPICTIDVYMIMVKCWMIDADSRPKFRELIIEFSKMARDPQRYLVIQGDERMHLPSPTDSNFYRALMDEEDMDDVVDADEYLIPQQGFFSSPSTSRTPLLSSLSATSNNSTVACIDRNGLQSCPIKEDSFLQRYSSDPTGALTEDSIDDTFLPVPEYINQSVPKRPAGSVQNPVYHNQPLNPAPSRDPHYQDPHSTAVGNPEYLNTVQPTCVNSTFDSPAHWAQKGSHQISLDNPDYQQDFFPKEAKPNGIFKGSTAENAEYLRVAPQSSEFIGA
Serine/threonine-protein kinase Nek2 (Homo sapiens), sequence (P51955 whole entry): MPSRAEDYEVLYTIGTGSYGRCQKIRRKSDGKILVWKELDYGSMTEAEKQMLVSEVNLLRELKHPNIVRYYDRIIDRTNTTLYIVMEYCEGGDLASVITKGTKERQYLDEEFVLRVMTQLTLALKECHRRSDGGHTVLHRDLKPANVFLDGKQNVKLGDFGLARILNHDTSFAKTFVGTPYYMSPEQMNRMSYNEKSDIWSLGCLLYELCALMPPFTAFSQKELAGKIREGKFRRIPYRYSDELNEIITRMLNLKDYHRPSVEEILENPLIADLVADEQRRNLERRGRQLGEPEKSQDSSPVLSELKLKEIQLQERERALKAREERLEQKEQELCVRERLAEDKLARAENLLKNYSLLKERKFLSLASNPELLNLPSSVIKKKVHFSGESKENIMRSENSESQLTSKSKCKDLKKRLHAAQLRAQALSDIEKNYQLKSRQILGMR

CN(C)CC#Cc1ccc(OCCCc2sc(N3CCc4cccc(C(=O)Nc5nc6ccccc6s5)c4C3)nc2C(=O)O)c(F)c1 [A-1155463]
residual activity [1]: 94%
Ki [2]: 136 nM
residual activity [3]: 88%
residual activity [4]: 84%
residual activity [5]: 88%
residual activity [6]: 99%
residual activity [7]: 76%
residual activity [8]: 100%
residual activity [9]: 100%
residual activity [10]: 100%
residual activity [11]: 92%
residual activity [12]: 56%
residual activity [13]: 100%
residual activity [14]: 69%
residual activity [15]: 100%
residual activity [16]: 93%
residual activity [17]: 100%
residual activity [18]: 100%
residual activity [19]: 100%
residual activity [20]: 100%
residual activity [21]: 100%
inhibition [22]: -1.75%
residual activity [23]: 78%
residual activity [24]: 100%
residual activity [25]: 100%
residual activity [26]: 81%
residual activity [27]: 87%
residual activity [28]: 100%
residual activity [29]: 99%
residual activity [30]: 100%
residual activity [31]: 93%
residual activity [32]: 100%
residual activity [33]: 75%
residual activity [34]: 100%
residual activity [35]: 100%
residual activity [36]: 95%
residual activity [37]: 93%
residual activity [38]: 100%
residual activity [39]: 100%
residual activity [40]: 100%
residual activity [41]: 91%
residual activity [42]: 90%
residual activity [43]: 100%
residual activity [44]: 93%
residual activity [45]: 87%
Ki [46]: 806 nM
